From paper PMC12196455, “Effect of Tegoprazan on Tacrolimus and Mycophenolate Levels in Kidney Transplant Recipients: A Randomized Controlled Study Using a Smart Trial Platform” (Pharmaceuticals, 2025)

Experiments:
[1] = Tacrolimus blood trough level (12 h post-dose, chemiluminescent immunoassay) in the randomized trial of tegoprazan vs pantoprazole; assay type: in vivo, human (kidney transplant recipients); conditions: 12-week follow-up in KTRs; result in words
Text: (§1) This study was a prospective, open-label, randomized controlled trial conducted on KTRs receiving tacrolimus, mycophenolate, and steroids. This study was registered at the Clinical Research Information Service (CRIS), Republic of Korea (Registration No. KCT 0010481, registration date: 20 May 2025). Data analysis took place at Kyungpook National University Hospital, Republic of Korea, from August 2022 to May 2023. The trial adhered to the approval guidelines of the Institutional Review Board of Kyungpook National University Hospital (IRB No. 2022-02-013, approval date: 31 March 2022).
(§2) Patients were randomly assigned to either the P-CAB (tegoprazan 50 mg) group or the PPI (pantoprazole 20 mg) group. Enrolled KTRs were scheduled for four visits at baseline, 4, 8, and 12 weeks post-randomization. The dosage of immunosuppressants remained unchanged throughout the 12-week study period. Blood tests, including measurements of immunosuppressant trough levels, serum creatinine levels, estimated glomerular filtration rate (eGFR), and vital signs, were conducted at each visit.
(§3) The primary outcome was to compare changes in drug concentrations of tacrolimus and mycophenolate following the administration of tegoprazan in KTRs.
(§4) Trough levels of tacrolimus and mycophenolate were measured at 12 h post-dose, following standard clinical practice for therapeutic drug monitoring in transplant recipients. Blood samples were collected at scheduled morning visits, and the 12 h interval was confirmed using electronic pillbox adherence data or patient interviews. Tacrolimus concentrations were measured using the Dimension® TAC Flex® reagent cartridge (Siemens Healthcare Diagnostics Inc., Newark, NJ, USA) on the Siemens Dimension® Integrated Chemistry System, employing a homogeneous chemiluminescent immunoassay (CLIA) method. Mycophenolic acid concentrations were measured using the Dimension® MPA Flex® reagent cartridge (Siemens Healthcare Diagnostics Inc., Newark, USA) on the same system, based on a particle-enhanced turbidimetric inhibition immunoassay (PETINIA) method. All assays were conducted in the Department of Laboratory Medicine at the study hospital.

[2] = Mycophenolate (mycophenolic acid) trough level (12 h post-dose, PETINIA immunoassay) in the randomized trial of tegoprazan vs pantoprazole; assay type: in vivo, human (kidney transplant recipients); conditions: 12-week follow-up in KTRs; result in words
Text: as §1, §2, §3, §4

[3] = Transplant outcomes (eGFR, de novo DSA, BPAR, allograft loss); assay type: in vivo, human (kidney transplant recipients); conditions: for eGFR: mean ± SD
Experimental: Patients were randomly assigned to either the P-CAB (tegoprazan 50 mg) group or the PPI (pantoprazole 20 mg) group. Enrolled KTRs were scheduled for four visits at baseline, 4, 8, and 12 weeks post-randomization. The dosage of immunosuppressants remained unchanged throughout the 12-week study period. Blood tests, including measurements of immunosuppressant trough levels, serum creatinine levels, estimated glomerular filtration rate (eGFR), and vital signs, were conducted at each visit. The collected data included patient demographics such as gender, age, height, weight, blood tacrolimus, mycophenolate concentrations, kidney function, liver function tests, allograft loss, and acute rejection episodes. We collected DSA information. DSA was identified using the Luminex single-antigen assay (LSA). […] The secondary outcome included evaluating transplant outcomes and GI symptoms using questionnaires. The transplant outcomes assessed were changes in eGFR, biopsy-proven acute rejection (BPAR), allograft loss, and de novo DSA during the study period. De novo DSA was defined as the new appearance of antibodies against mismatched donor human leukocyte antigen (HLA) not present at baseline.

[4] = GI symptom questionnaires (GERD-HRQL, RDQ) via electronic diary app; assay type: in vivo, human (kidney transplant recipients); set-up: key to GERD-HRQL score: sum of 10 items each scored 0-5; higher = poorer quality of life; conditions: mean ± SD
Experimental: Changes in GI symptoms were measured and recorded using a self-developed electronic diary app installed on participants’ mobile phones. This app facilitated the assessment of GI symptoms through the Gastroesophageal Reflux Disease–Health-Related Quality of Life (GERD-HRQL) and Reflux Disease Questionnaire (RDQ). The GERD-HRQL scale comprises 10 items, addressing both GI symptoms and the patient’s overall condition. Each item is scored on a scale from 0 to 5, with higher scores indicating a poorer quality of life. The RDQ is a 6-item self-administered questionnaire designed to evaluate the severity and frequency of heartburn sensation, gastric acid regurgitation, and dyspepsia.
The secondary outcome included evaluating transplant outcomes and GI symptoms using questionnaires. The transplant outcomes assessed were changes in eGFR, biopsy-proven acute rejection (BPAR), allograft loss, and de novo DSA during the study period. De novo DSA was defined as the new appearance of antibodies against mismatched donor human leukocyte antigen (HLA) not present at baseline.

Adverse event monitoring = assay type: in vivo, human (kidney transplant recipients); conditions: 12 weeks
Experimental: Safety evaluations were conducted through comprehensive monitoring, including physical examinations, clinical laboratory tests, vital signs, and the documentation of adverse events (AEs). Participants were encouraged to voluntarily report AEs regularly throughout the study.

[5] = set-up: method as in PMID 34246485; conditions: result in words; cited from earlier work
[6] = during the 12-week study period

## Cc1nc2cc(C(=O)N(C)C)cc(O[C@H]3CCOc4cc(F)cc(F)c43)c2[nH]1 [P-CAB, tegoprazan]
[1]
  Effect on blood trough level of tacrolimus: does not alter
[2]
  Effect on blood trough level of mycophenolate: does not alter
[3]; Baseline
  eGFR: 62.8 ± 17.1 mL/min/1.73 m^2
[3]; Week 4
  eGFR: 61.8 ± 13.0 mL/min/1.73 m^2
[3]; Week 8
  eGFR: 60.6 ± 12.8 mL/min/1.73 m^2
[3]; Week 12
  eGFR: 63.5 ± 16.5 mL/min/1.73 m^2
[3]; [6]
  Allograft Loss: 0 number
  BPAR: 0 number
[4]; Baseline
  RDQ score: 4.7 ± 4.7
[4]; Baseline, higher score = poorer quality of life
  GERD-HRQL score: 4.9 ± 4.3
[4]; Week 4
  GERD-HRQL score: 0.9 ± 1.4
  RDQ score: 1.0 ± 2.1
[4]; Week 8
  GERD-HRQL score: 0.7 ± 1.0
  RDQ score: 0.6 ± 1.2
[4]; Week 12
  GERD-HRQL score: 0.7 ± 1.6
  RDQ score: 0.7 ± 1.9
Adverse event monitoring
  AE: Abdominal discomfort: 3 (11.5) number (%)
  AE: Arthralgia: 1 (3.8) number (%)
  AE: Constipation: 2 (7.7) number (%)
  AE: Diarrhea: 5 (19.2) number (%)
  AE: Headache: 0 (0.0) number (%)
  AE: Hypertension: 4 (15.4) number (%)
  AE: Hypoglycemia: 1 (3.8) number (%)
  AE: Myalgia: 0 (0.0) number (%)
  AE: Nausea, vomiting: 3 (11.5) number (%)
  AE: Productive cough, sputum: 4 (15.4) number (%)
  AE: Pyrexia: 0 (0.0) number (%)
  AE: Toothache: 0 (0.0) number (%)
  AE: Upper respiratory tract infection: 2 (7.7) number (%)
  AE: Urinary tract infection: 0 (0.0) number (%)
  AE: Vertigo: 0 (0.0) number (%)
  Participants with AEs: 15 (57.7) number (%)
  Participants with SAEs: 2 (7.7) number (%)
  Withdrawal due to AEs: 0 (0.0) number (%)
Adverse event monitoring; none related to the study drug
  Cases of serious adverse events (SAEs): two
Adverse event monitoring; p = 0.032 between groups
  Overall incidence of AEs: 57.7%
Adverse event monitoring; human, in vivo
  AE: COVID-19: 0 (0.0) number (%)
[5]
  Effect of food intake on pharmacokinetic and pharmacodynamic properties: unaffected by food intake
